What all share (test): microbe, parasite or virus in culture
Format in all cases: cell-based

Experiment [1] has as its system clinically isolated HIV strain A (A-2-001). The method, then: (§1) The compounds were tested in a cellular assay using the MT4-LTR-EGFP cells for anti-viral activity. […] Because of the increasing emergence of drug resistant HIV strains, the present compounds were tested for their potency against clinically isolated HIV strains harboring several mutations. […] The viral strains A, B, C and D contain mutations as indicated below in Table 3.
(§2) The cellular assay was performed according to the following procedure. HIV- or mock-infected MT4-LTR-EGFP cells were incubated for three days in the presence of various concentrations of the compounds according to the invention. Upon infection, the viral tat protein activates the GFP reporter. At the end of the incubation period, the GFP signal was measured. […] The inhibitory activity of the compound was monitored on the virus-infected cells and was expressed as EC50. These values represent the amount of the compound required to protect 50% of the cells from virus infection.

The subject of experiment [2] is clinically isolated HIV strain B (B-2-001). The method, then:
as §1, §2

Experiment [3] deals with clinically isolated HIV strain C (C-2-001). On the procedure:
as §1, §2

Experiment [4] relates to clinically isolated HIV strain D (D-2-001). The method, then: as §1, §2
In experiment [5] the test system is wild type laboratory HIV strain (WT IIIB-2-001). To be noted: Human immunodeficiency virus 1, IIIB, 72 h, read-out: Virus Strains WT-IIIB-2-001. The method, then: as §1, §2
Setting [6] is: Human immunodeficiency virus 1, 72 h, read-out: Virus Strains A-2-001.
Where [7] appears, read: Human immunodeficiency virus 1, 72 h, read-out: Virus Strains B-2-001.
The mark [8] stands for this setting: Human immunodeficiency virus 1, 72 h, read-out: Virus Strains C-2-001.
Setting [9] is: Human immunodeficiency virus 1, 72 h, read-out: Virus Strains D-2-001.

Where two headings read alike, the source gives them in different places.

Take `CC(C)CN(C[C@@H](O)[C@H](Cc1ccccc1)NC(=O)O[C@H]1CO[C@H]2OCC[C@H]21)S(=O)(=O)c1ccc(N)c(N[C@H]2CCN(C3CCCC3)C2)c1` (stereo in doubt) [Compound 79, (3-{[4-amino-3-(1-cyclopentyl-pyrrolidin-3-ylamino)-benzene-sulfonyl]-isobutyl-amino}-1-benzyl-2-hydroxy-propyl)-carbamic acid hexahydrofuro[2,3-b]furan-3-yl ester]: the EC50 is 20.9 nM in experiment [1] (setting [6]); 275 nM in experiment [2] (setting [7]); 50.1 nM in experiment [3] (setting [8]); 38.9 nM in experiment [4] (setting [9]); 66.1 nM in experiment [5].
Taken in the same sequence, the figures for `CC(C)CN1CC[C@H](Nc2cc(S(=O)(=O)N(CC(C)C)C[C@@H](O)[C@H](Cc3ccccc3)NC(=O)O[C@H]3CO[C@H]4OCC[C@H]43)ccc2N)C1` (stereo in doubt) [Compound 83, (3-{[4-amino-3-(1-isobutyl-pyrrolidin-3-ylamino)-benzenesulfonyl]-isobutyl-amino}-1-benzyl-2-hydroxy-propyl)-carbamic acid hexahydro-furo-[2,3-b]furan-3-yl ester] were 3.39 nM, 129 nM, 16.6 nM, 75.9 nM and 26.3 nM.
For `CC(C)CN(C[C@@H](O)[C@H](Cc1ccccc1)NC(=O)O[C@H]1CO[C@H]2OCC[C@H]21)S(=O)(=O)c1ccc(N)cc1` [TMC 114, (3R,3aS,6aR)-hexahydrofuro[2,3-b]furan-3-yl N-[(1S,2R)-1-benzyl-2-hydroxy-3-(N 1-isobutylsulfanilamido)propyl]carbamate, reference compound], the EC50 in experiment [1] (Human immunodeficiency virus 1, read-out: pEC50-A (converted)) was 7.94 nM; in experiment [2] (Human immunodeficiency virus 1, read-out: pEC50-B (converted)), 851 nM; in experiment [3] (Human immunodeficiency virus 1, read-out: pEC50-C (converted)), 89.1 nM; in experiment [4] (Human immunodeficiency virus 1, read-out: pEC50-D (converted)), 4790 nM.

Values taken from patent US7803836B2, “Aminophenylsulfonamide derivatives as HIV protease inhibitor” (priority 2005, dated 2010).
